Test results: US20060257843A1 (priority 2002, published 2006)
Like-named read-outs stand apart in the source and are kept apart here.

Key:
[1] = system: primary cultures of cortex
[2] = system: cortical cells; details: 100 uM tolbutamide
[3] = system: primary cortical cultures; details: 5% Triton; 20 minutes incubation
[4] = target: F425G Shaker mutation (Drosophila melanogaster, UniProt P08510, F425G); details: cited from earlier work
F425G Shaker mutation, sequence (P08510 whole entry F425G): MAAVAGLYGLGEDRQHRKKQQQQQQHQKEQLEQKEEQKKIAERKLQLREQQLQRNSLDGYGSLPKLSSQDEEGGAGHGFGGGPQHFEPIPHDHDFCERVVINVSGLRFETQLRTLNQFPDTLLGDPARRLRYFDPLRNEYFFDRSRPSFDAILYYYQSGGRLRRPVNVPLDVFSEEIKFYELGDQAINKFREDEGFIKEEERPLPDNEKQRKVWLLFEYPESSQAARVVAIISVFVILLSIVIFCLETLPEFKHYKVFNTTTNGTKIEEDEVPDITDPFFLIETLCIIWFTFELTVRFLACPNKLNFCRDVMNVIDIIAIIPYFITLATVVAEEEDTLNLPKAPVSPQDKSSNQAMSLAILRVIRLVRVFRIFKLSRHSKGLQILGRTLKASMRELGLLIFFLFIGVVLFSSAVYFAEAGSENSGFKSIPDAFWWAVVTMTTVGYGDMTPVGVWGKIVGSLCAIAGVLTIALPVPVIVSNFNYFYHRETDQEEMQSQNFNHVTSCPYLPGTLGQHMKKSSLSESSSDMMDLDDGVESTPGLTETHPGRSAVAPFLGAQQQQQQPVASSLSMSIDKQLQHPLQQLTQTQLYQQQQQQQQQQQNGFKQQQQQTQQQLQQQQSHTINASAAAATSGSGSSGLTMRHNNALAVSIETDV

Compound: Nc1ccncc1 [4-AP, 4-aminopyridine]
- effect of K+ channel antagonist on κ-PVIIA-induced hyperpolarization ([1]; cortical preparations, 100 nM κ-PVIIA): without any detectable effect

Compound: COc1ccc(Cl)cc1C(=O)NCCc1ccc(S(=O)(=O)NC(=O)NC2CCCCC2)cc1 [Glibenclamide]
- effect of Glibenclamide on κ-PVIIA-induced hyperpolarization ([1]; cortical preparations, Glibenclamide 10 nM, 100 nM κ-PVIIA): significant reductions

Compound: CCCCNC(=O)NS(=O)(=O)c1ccc(C)cc1 [Tolbutamide, reference compound]
- effect of tolbutamide on κ-PVIIA protection against glutamate cytotoxicity [2]: blocked

Compound: Iberiotoxin (QFTDVDCSVSKECWSVCKDLFGVDRGKCMGKKCRCYQ; UniProt P24663 1-37, looked up) [IBTX]
- effect of K+ channel antagonist on κ-PVIIA-induced hyperpolarization [1]: without any detectable effect

Compound: Triton [reference compound]
- increase in fluorescence, Enzchek protease-sensitive dye [3]: ~14%

Compound: charybdotoxin [reference compound]
- increase of charybdotoxin affinity by F425G Shaker mutation [4]: three orders of magnitude
